According to PMC10096123, “14-Substituted Diquinothiazines as a New Group of Anticancer Agents” (Molecules, 2023):
“Also recorded” adds a separate entry of the source.

How the values were obtained:
BEAS-2B cells = assay: 72-h MTT viability assay, normal lung epithelial BEAS-2B; format: cell-based, human; settings: 72 h incubation, mean of 3 experiments +/-SD, no effect = viability (SF) similar to control, about 100%; for IC50: Homo sapiens, BEAS-2B
Source text: (§1) The IC50 for cell viability was described with a dose of the drug, with a 50% reduction in the whole population, when compared to the untreated controls. The obtained results allow for a comparison of different compounds, using the same or different targeted cell lines. Cell survival fractions (SF), followed by the MTT 72-h viability assay for the HCT116 and SH-5YSY cells, are presented in the Supplementary File (Figure S1).
(§2) For cytological studies, human cancer cell lines were chosen, with special emphasis on the colorectal, HCT116, and neuroblastoma SH-5YSY cell lines, as well as lung normal epithelial BEAS-2B and cancer H1299 and A549 cancer cell lines (all obtained from the ATTC collection; Manassas, VA, USA). The cells were harvested under the standard conditions in incubator (5% CO2, 37 °C and 60% humidity; Panasonic model MCO-19 AIC). Cells were cultured in T75 mL sterile bottles (Sartedt), using DMEM-F12 medium (Merck, Poznań, Poland) supplemented with 10% of Fetal Bovine Serum (EURx, Gdańsk, Poland). During the experimental procedure, each cell line wasn’t more than 60–80% confluenced, no older than maximal number of passages 30. For adherent cell passages, the enzyme trypsin working solution, prepared in sodium phosphate buffer saline (PBS, pH = 7.4; PAN-Biotech Gmbh, Aidenbach, Germany), was used. The tested compounds were prepared as […] stocks in 100% DMSO (Merck, Poznań, Poland), and were stored at −20 °C. Before use in cytological studies, the working solution of each compound was prepared directly in complete DMEM-F12 medium. A positive-control, anticancer drug, etoposide (Merck, Poznań, Poland), was dissolved and prepared as solutions with doses of 20, 10, 5, 2.5, 1.25, 0.63 µM (0 µM for control, untreated cells in DMEM-F12 without any tested compound additions), respectively.
(§3) HCT116 and SH-5YSY cells collected after trypsinization were counted under the Bürker’s chamber, and 2000 or 5000 cells were seeded on each well of the 96-well-format sterile plate (Sarstedt, Nümbrecht, Germany), in 100 µL of complete DMEM-F12 medium, respectively. Twenty-four hours before compound addition, the cells were monitored directly on plates; only well-attached cells were used for treatments with background controls (DMSO with final maximal concentration of 1%) and untreated controls. The normal lung (BEAS-2B) and cancer (H1299 and […]) cell lines were cultured and prepared for viability MTT assay in similar way. To treat wells, 100 µL of tested compounds in fresh medium were added at concentration range of 100, 50, 25, 12.5, 6.25, 3.13 µM (0 µM for control, untreated cells in DMEM-F12 without any tested compound additions). An etoposide as a positive control, as anticancer drug, was prepared in similar way. Followed by 72 h of incubation, the viability assay was performed according to the producer protocol (Promega, Madison, WI, USA), where the medium and compounds were removed and cells were washed with PBS solution. A yellow tetrazolium salt (3-(4,5-dimethylthiazol-2-yl)-2,5-diphenyltetrazolium bromide solution (0.5 mg/mL) in serum and phenol red-free DMEM (Merck, Poznań, Poland) was added to each well on plates at a volume of 50 µL for 2–3 h of darkness, at 37 °C incubation. The purple formazan crystals were produced only by the viable cells, containing NAD (P)H-dependent oxidoreductase enzymes, which reduce the MTT. The crystals were dissolved in acidic (0.04 M HCl) 2-propanolol solution (Merck, Poznań, Poland) after addition of 75 µL of dissolving mixture to each well on plates for 5–10 min in darkness and at room-temperature (RT) incubation. The absorption at 570 nm was measured directly using multiplate reader (Epoch, BioTek, Winooski, VT, USA). Each time, the biological experiments were repeated three times.
(§4) Obtained absorbance was analyzed for proliferation and survival fraction (SF) assessments, where tested samples were compared to the untreated controls (100%). […]

H1299 cells = assay: 72-h MTT viability assay, H1299; format: cell-based, human; settings: 72 h incubation, mean of 3 experiments +/-SD
Source text: as §1, §2, §3, §4

A549 cells = assay: 72-h MTT viability assay, A549; format: cell-based, human; settings: 72 h incubation, mean of 3 experiments +/-SD
Source text: as §1, §2, §3, §4

HCT116 cells = assay: 72-h MTT viability assay, HCT116; format: cell-based, human; settings: 72 h incubation, mean of 3 experiments +/-SD
Source text: as §1, §2, §3, §4

SH-SY5Y cells = assay: 72-h MTT viability assay, SH-SY5Y; format: cell-based, human; settings: 72 h incubation, mean of 3 experiments +/-SD, no effect = viability (SF) similar to control, about 100%; for IC50: Homo sapiens, SH-SY5Y
Source text: as §1, §2, §3, §4

[1] = tested on: HCT116, SH-SY5Y, A549, H1299 cell lines; assay: 72-h MTT viability assay, all cell lines used in the study (summary statements); format: cell-based, human; settings: for anticancer activity (ranking within the series): HCT116 and SH-SY5Y, in words
Source text: as §1, §2
HCT116 and SH-5YSY cells collected after trypsinization were counted under the Bürker’s chamber, and 2000 or 5000 cells were seeded on each well of the 96-well-format sterile plate (Sarstedt, Nümbrecht, Germany), in 100 µL of complete DMEM-F12 medium, respectively. Twenty-four hours before compound addition, the cells were monitored directly on plates; only well-attached cells were used for treatments with background controls (DMSO with final maximal concentration of 1%) and untreated controls. The normal lung (BEAS-2B) and cancer (H1299 and […]) cell lines were cultured and prepared for viability MTT assay in similar way. […] The absorption at 570 nm was measured directly using multiplate reader (Epoch, BioTek, Winooski, VT, USA). […]
as §4

Row | Compound | IC50 (BEAS-2B cells) | IC50 (H1299 cells; Homo sapiens, NCI-H1299, 72 h) | IC50 (A549 cells; Homo sapiens, A549, 72 h) | IC50 (HCT116 cells; Homo sapiens, HCT-116, 72 h) | IC50 (SH-SY5Y cells) | IC50 BEAS-2B (BEAS-2B cells) | IC50 SH-SY5Y (SH-SY5Y cells) | melting point | IC50 (HCT116 cells) | IC50 (H1299 cells) | anticancer activity (ranking within the series) [1] | IC50 ([1]; Homo sapiens, range over the cancer cell lines, read-out: IC50 values against all cell lines used in the study) | IC50 (A549 cells) | IC50 (A549 cells; listed as etopiside)
1 | c1ccc2c3c(cnc2c1)Sc1cnc2ccccc2c1N3CCN1CCCC1 [Compound 2a, 14-(pyrrolidinylethyl)diquinothiazine] | 84.5 ± 11.1 µM | 8.1 ± 1.83 µM | 13.3 ± 2.23 µM | 11.1 ± 3.39 µM | 6.5 ± 1.22 µM |  |  |  |  |  |  |  |  | 
2 | O=C1CCCN1CCCN1c2c(cnc3ccccc23)Sc2cnc3ccccc3c21 [Compound 2b, 14-(pyrrolidinonylpropyl)diquinothiazine] | 83.5 ± 12.3 µM | 5.3 ± 1.04 µM | 12.4 ± 2.25 µM | 9.4 ± 4.41 µM | 7.7 ± 2.59 µM |  |  |  |  |  |  |  |  | 
3 | c1ccc2c3c(cnc2c1)Sc1cnc2ccccc2c1N3CCN1CCCCC1 [Compound 2c] |  | 7.5 ± 1.97 µM | 14.7 ± 2.81 µM |  | 14.3 ± 1.49 µM | no effect |  |  |  |  |  |  |  | 
4 | c1ccc2c3c(cnc2c1)Sc1cnc2ccccc2c1N3CCN1CCOCC1 [Compound 2d] | 118 ± 18.4 µM | 8.9 ± 1.02 µM | 20.7 ± 2.25 µM | 23.1 ± 1.37 µM | 13.5 ± 2.69 µM |  |  |  |  |  |  |  |  | 
5 | c1ccc2c3c(cnc2c1)Sc1cnc2ccccc2c1N3CCN1CCNCC1 [Compound 2e, 14-(piperazinyloethyl)dichinotiazyny] | 26.5 ± 1.85 µM | 7 ± 1.85 µM | 10.1 ± 2.26 µM | 10.3 ± 1.82 µM | 4.9 ± 0.87 µM |  |  |  |  |  |  |  |  | 
6 | CCN(CC)CCN1c2c(cnc3ccccc23)Sc2cnc3ccccc3c21 [Compound 2f] | 122 ± 12 µM | 22.2 ± 3.83 µM | 27.9 ± 2.07 µM | 16.9 ± 1.73 µM |  |  | inactive; also recorded: no effect |  |  |  |  |  |  | 
7 | CN(C)CCCN1c2c(cnc3ccccc23)Sc2cnc3ccccc3c21 [Compound 2g] |  | 24.5 ± 1.91 µM | 31.5 ± 2.36 µM | 13.1 ± 1.82 µM |  | no effect | inactive; also recorded: no effect |  |  |  |  |  |  | 
8 | N#Cc1ccc(N2c3c(cnc4ccccc34)Sc3cnc4ccccc4c32)cc1 [Compound 3a, 14-(4-cyanophenyl)diquinothiazine] |  | 3.7 ± 0.91 µM | 84.9 ± 12.1 µM | < 8.6 µM |  | no effect | inactive; also recorded: no effect | > 300 °C | 4.9 ± 1.97 µM |  |  |  |  | 
9 | FC(F)(F)c1ccc(N2c3c(cnc4ccccc34)Sc3cnc4ccccc4c32)cc1 [Compound 3b, 14-(4-trifluoromethylphenyl)diquinothiazine] | 86.1 ± 11 µM | 14.6 ± 1.92 µM | 42.5 ± 16.5 µM | 17.1 ± 4.81 µM |  |  | inactive; also recorded: no effect | 292 to 293 °C |  |  |  |  |  | 
10 | CSc1ccc(N2c3c(cnc4ccccc34)Sc3cnc4ccccc4c32)cc1 [Compound 3c, 14-(methylthiophenyl)diquinothiazine] | 69 ± 4.89 µM | 2.7 µM | 17.2 ± 1.02 µM |  | 2.7 ± 0.21 µM | low cytotoxicity |  | 262 to 263 °C |  | 1.6 ± 0.86 µM | strongest anticancer activity | 1.6 to 17.2 µM |  | 
11 | CC(=O)NCCN1c2c(cnc3ccccc23)Sc2cnc3ccccc3c21 [Compound 5a, 14-acetylaminoethyldiquinothiazine] | 108 ± 9.83 µM | 26.2 ± 1.99 µM | 71.1 ± 14.7 µM | 25.9 ± 4.87 µM | 24.7 ± 5.44 µM |  |  | 89 to 90 °C |  |  | lowest anticancer activity |  |  | 
12 | CC(=O)NCCCN1c2c(cnc3ccccc23)Sc2cnc3ccccc3c21 [Compound 5b, 14-acetylaminopropyldiquinothiazine] | 86.9 ± 9.67 µM | 23.5 ± 1.97 µM | 56.5 ± 15.6 µM | 17.7 ± 1.53 µM | 21.4 ± 4.02 µM |  |  | 171 to 172 °C |  |  |  |  |  | 
13 | CC(=O)NCCCCN1c2c(cnc3ccccc23)Sc2cnc3ccccc3c21 [Compound 5c, 14-acetylaminobutyldiquinothiazine] |  | 30.3 ± 1.57 µM | 49.3 ± 15.9 µM | 26.5 ± 1.15 µM | 21.9 ± 4.31 µM | no effect |  | 68 to 69 °C |  |  | lowest anticancer activity |  |  | 
14 | CS(=O)(=O)NCCN1c2c(cnc3ccccc23)Sc2cnc3ccccc3c21 [Compound 6a, 14-methanesulfonylaminoethyldiquinothiazine] |  | 36.9 ± 6.06 µM | 65.4 ± 14.1 µM | 20.2 ± 1.01 µM |  | no effect | inactive; also recorded: no effect | 229 to 230 °C |  |  |  |  |  | 
15 | CS(=O)(=O)NCCCN1c2c(cnc3ccccc23)Sc2cnc3ccccc3c21 [Compound 6b, 14-methanesulfonylaminopropyldiquinothiazine] |  | 25.9 ± 4.14 µM | 45.2 ± 17.2 µM | 15.6 ± 1.16 µM |  | no effect | inactive; also recorded: no effect | 199 to 200 °C |  |  |  |  |  | 
16 | CS(=O)(=O)NCCCCN1c2c(cnc3ccccc23)Sc2cnc3ccccc3c21 [Compound 6c, 14-methanesulfonylaminobutyldiquinothiazine] |  | 13.4 ± 1.68 µM | 36.9 ± 16.8 µM | 17.6 ± 1.85 µM | 21.6 ± 7.64 µM | no effect |  | 184 to 186 °C |  |  |  |  |  | 
17 | c1ccc2c3c(cnc2c1)Sc1cnc2ccccc2c1N3 [Compound M0] |  | 67.2 ± 9.64 µM | 18 ± 3.09 µM | 5.8 ± 0.63 µM |  | no effect | inactive; also recorded: no effect |  |  |  |  |  |  | 
18 | COc1cc([C@@H]2c3cc4c(cc3[C@@H](O[C@@H]3O[C@@H]5CO[C@@H](C)O[C@H]5[C@H](O)[C@H]3O)[C@H]3COC(=O)[C@H]23)OCO4)cc(OC)c1O [etoposide, reference compound] | 0.00311 ± 0.0002 µM | 0.6 ± 0.16 µM |  | 8.6 ± 1.42 µM | 3.9 ± 0.76 µM |  |  |  |  |  |  |  | 4.48 ± 0.21 µM | 44.8 µM
